Reference: patent US20260262643A1, “HERBICIDAL BENZOXAZINES” (FMC CORPORATION, priority 2022, published 2026)

Legend:
sedge, umbrella = assay: Test D flooded paddy test; assay type: in vivo, Cyperus difformis; details: 250 g ai/ha, applied to paddy water, visual rating after 13 to 14 days, scale 0 to 100 (0 no effect, 100 complete control)
Summary of the method: (§1)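 Rating scale 0–100 (0 no effect, 100 complete control), visual, versus controls. Readout at 13–14 days after in-water application to 2-leaf plants in pots flooded 3 cm deep.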

ducksalad = assay: Test D flooded paddy test; assay type: in vivo, Heteranthera limosa; details: 250 g ai/ha, applied to paddy water, visual rating after 13 to 14 days, scale 0 to 100 (0 no effect, 100 complete control)
Summary of the method: as §1

green foxtail [1] = assay: Test C preemergence; assay type: in vivo, Setaria viridis
Summary of the method: (§2)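 Seeds in loam–sand blend received preemergence directed soil spray of test chemicals in non-phytotoxic solvent with surfactant; postemergence treatment was applied at one- to two-leaf stage (2–10 cm). After 10 days in greenhouse, injury rated visually versus untreated controls, 0 (no effect) to 100 (complete control).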

wheat [2] = assay: Test C postemergence; assay type: in vivo, Triticum aestivum; details: 10 days, 0 to 100 scale (0 no effect, 100 complete control)
Summary of the method: as §2

barnyardgrass [3] = assay: Test D flooded paddy test; assay type: in vivo, Echinochloa crus-galli; details: 250 g ai/ha, applied to paddy water, visual rating after 13 to 14 days, scale 0 to 100 (0 no effect, 100 complete control)
Summary of the method: as §1

horseweed = assay: Test C postemergence; assay type: in vivo, Erigeron canadensis; details: 10 days, 0 to 100 scale (0 no effect, 100 complete control)
Summary of the method: as §2

pigweed, palmer [4] = assay: Test C postemergence; assay type: in vivo, Amaranthus palmeri; details: 10 days, 0 to 100 scale (0 no effect, 100 complete control)
Summary of the method: as §2

corn [5] = assay: Test C preemergence; assay type: in vivo, Zea mays
Summary of the method: as §2

ryegrass, Italian [6] = assay: Test C postemergence; assay type: in vivo, Lolium multiflorum; details: 10 days, 0 to 100 scale (0 no effect, 100 complete control)
Summary of the method: as §2

oat, wild [7] = assay: Test C preemergence; assay type: in vivo, Avena fatua
Summary of the method: as §2

corn [8] = assay: Test C postemergence; assay type: in vivo, Zea mays; details: 10 days, 0 to 100 scale (0 no effect, 100 complete control)
Summary of the method: as §2

barnyardgrass [9] = assay: Test C postemergence; assay type: in vivo, Echinochloa crusgalli; details: 10 days, 0 to 100 scale (0 no effect, 100 complete control)
Summary of the method: as §2

blackgrass [10] = assay: Test C postemergence; assay type: in vivo, Alopecurus myosuroides; details: 10 days, 0 to 100 scale (0 no effect, 100 complete control)
Summary of the method: as §2

blackgrass [11] = assay: Test C preemergence; assay type: in vivo, Alopecurus myosuroides
Summary of the method: as §2

ragweed [12] = assay: Test C postemergence; assay type: in vivo, Ambrosia artemisiifolia; details: 10 days, 0 to 100 scale (0 no effect, 100 complete control)
Summary of the method: as §2

oat, wild [13] = assay: Test C postemergence; assay type: in vivo, Avena fatua; details: 10 days, 0 to 100 scale (0 no effect, 100 complete control)
Summary of the method: as §2

rice = assay: Test D flooded paddy test; assay type: in vivo, Oryza sativa; details: 250 g ai/ha, applied to paddy water, visual rating after 13 to 14 days, scale 0 to 100 (0 no effect, 100 complete control)
Summary of the method: as §1

galium = assay: Test C postemergence; assay type: in vivo, Galium aparine; details: 10 days, 0 to 100 scale (0 no effect, 100 complete control)
Summary of the method: as §2

ryegrass, Italian [14] = assay: Test C preemergence; assay type: in vivo, Lolium multiflorum
Summary of the method: as §2

soybean [15] = assay: Test C preemergence; assay type: in vivo, Glycine max
Summary of the method: as §2

wheat [16] = assay: Test C preemergence; assay type: in vivo, Triticum aestivum
Summary of the method: as §2

kochia [17] = assay: Test C postemergence; assay type: in vivo, Bassia scoparia; details: 10 days, 0 to 100 scale (0 no effect, 100 complete control)
Summary of the method: as §2

barnyardgrass [18] = assay: Test C preemergence; assay type: in vivo, Echinochloa crusgalli
Summary of the method: as §2

ragweed [19] = assay: Test C preemergence; assay type: in vivo, Ambrosia artemisiifolia
Summary of the method: as §2

kochia [20] = assay: Test C preemergence; assay type: in vivo, Bassia scoparia
Summary of the method: as §2

pigweed, palmer [21] = assay: Test C preemergence; assay type: in vivo, Amaranthus palmeri
Summary of the method: as §2

soybean [22] = assay: Test C postemergence; assay type: in vivo, Glycine max; details: 10 days, 0 to 100 scale (0 no effect, 100 complete control)
Summary of the method: as §2

green foxtail [23] = assay: Test C postemergence; assay type: in vivo, Setaria viridis; details: 10 days, 0 to 100 scale (0 no effect, 100 complete control)
Summary of the method: as §2

[24] = 500 g ai/ha, preemergence, 0 to 100 scale (0 no effect, 100 complete control)
[25] = Preemergence, 125 g ai/ha, 0 to 100 scale, 0 no effect, 100 complete control

COC[C@H]1CN(C(=O)c2cc(-n3cnc(C(C)(C)C)n3)cc3c2OCCO3)c2cccc(Cl)c2O1 [Compound 382]
Plant response rating, Sedge, Umbrella (Flood) (sedge, umbrella): 25 | Plant response rating, Ducksalad (Flood) (ducksalad): 15 | Foxtail, Green plant response rating (green foxtail [1]; [24]): 100 | Plant response rating, Foxtail, Green (green foxtail [1]; [25]): 90 | Plant response rating, Wheat (wheat [2]; 500 g ai/ha, postemergence): 40 | Plant response rating, Wheat (wheat [2]; Postemergence, 125 g ai/ha): 20 | Plant response rating, Barnyardgrass (Flood) (barnyardgrass [3]): 50 | Plant response rating, Horseweed (horseweed; 500 g ai/ha, postemergence): 50 | Plant response rating, Horseweed (horseweed; Postemergence, 125 g ai/ha): 50 | Plant response rating, Pigweed, Palmer (pigweed, palmer [4]; 500 g ai/ha, postemergence): 100 | Plant response rating, Pigweed, Palmer (pigweed, palmer [4]; Postemergence, 125 g ai/ha): 100 | Corn plant response rating (corn [5]; [24]): 70 | Plant response rating, Corn (corn [5]; [25]): 10 | Plant response rating, Ryegrass, Italian (ryegrass, Italian [6]; 500 g ai/ha, postemergence): 60 | Plant response rating, Ryegrass, Italian (ryegrass, Italian [6]; Postemergence, 125 g ai/ha): 40 | Oat, Wild plant response rating (oat, wild [7]; [24]): 80 | Plant response rating, Oat, Wild (oat, wild [7]; [25]): 20 | Plant response rating, Corn (corn [8]; 500 g ai/ha, postemergence): 50 | Plant response rating, Corn (corn [8]; Postemergence, 125 g ai/ha): 20 | Plant response rating, Barnyardgrass (barnyardgrass [9]; 500 g ai/ha, postemergence): 50 | Plant response rating, Barnyardgrass (barnyardgrass [9]; Postemergence, 125 g ai/ha): 30 | Plant response rating, Blackgrass (blackgrass [10]; 500 g ai/ha, postemergence): 40 | Plant response rating, Blackgrass (blackgrass [10]; Postemergence, 125 g ai/ha): 10 | Blackgrass plant response rating (blackgrass [11]; [24]): 50 | Plant response rating, Blackgrass (blackgrass [11]; [25]): 10 | Plant response rating, Ragweed (ragweed [12]; 500 g ai/ha, postemergence): 90 | Plant response rating, Ragweed (ragweed [12]; Postemergence, 125 g ai/ha): 90 | Plant response rating, Oat, Wild (oat, wild [13]; 500 g ai/ha, postemergence): 0 | Plant response rating, Oat, Wild (oat, wild [13]; Postemergence, 125 g ai/ha): 0 | Plant response rating, Rice (Flood) (rice): 15 | Plant response rating, Galium (galium; 500 g ai/ha, postemergence): 100 | Plant response rating, Galium (galium; Postemergence, 125 g ai/ha): 100 | Ryegrass, Italian plant response rating (ryegrass, Italian [14]; [24]): 100 | Plant response rating, Ryegrass, Italian (ryegrass, Italian [14]; [25]): 80 | Soybean plant response rating (soybean [15]; [24]): 80 | Plant response rating, Soybean (soybean [15]; [25]): 60 | Wheat plant response rating (wheat [16]; [24]): 40 | Plant response rating, Wheat (wheat [16]; [25]): 0 | Plant response rating, Kochia (kochia [17]; 500 g ai/ha, postemergence): 100 | Plant response rating, Kochia (kochia [17]; Postemergence, 125 g ai/ha): 90 | Barnyardgrass plant response rating (barnyardgrass [18]; [24]): 100 | Plant response rating, Barnyardgrass (barnyardgrass [18]; [25]): 50 | Ragweed plant response rating (ragweed [19]; [24]): 100 | Plant response rating, Ragweed (ragweed [19]; [25]): 60 | Kochia plant response rating (kochia [20]; [24]): 100 | Plant response rating, Kochia (kochia [20]; [25]): 80 | Pigweed, Palmer plant response rating (pigweed, palmer [21]; [24]): 100 | Plant response rating, Pigweed, Palmer (pigweed, palmer [21]; [25]): 100 | Plant response rating, Soybean (soybean [22]; 500 g ai/ha, postemergence): 100 | Plant response rating, Soybean (soybean [22]; Postemergence, 125 g ai/ha): 100 | Plant response rating, Foxtail, Green (green foxtail [23]; 500 g ai/ha, postemergence): 60 | Plant response rating, Foxtail, Green (green foxtail [23]; Postemergence, 125 g ai/ha): 20
